Data reported in patent US20260109688A1, “NOVEL ANTIBIOTIC COMPOUND” (SINTEF TTO AS, priority 2022, published 2026).
In brackets after ≈: the same amount, converted by molar mass.

What was measured:
[1] = tested on: E. faecium CCUG 37832; assay: In vitro MIC bioassay (broth microdilution, 384 well); assay type: cell-based, Enterococcus faecium; conditions: Mueller-Hinton broth, 2.7% DMSO
Protocol: (§1) Minimal inhibitory concentrations against a selection of Gram-positive indicator organisms (MICs) were determined according to Clinical and Laboratory Standards Institute protocols by microdilution tests using in a 384 well format. The indicator strains were incubated in TSB medium over night until OD600-0.4, then diluted to OD600=0.1 in TSB medium and further 45× in assay medium (Mueller-Hinton broth, Difco). Inoculated medium was distributed into assay plates. Inoculated wells were added a 2× dilution series of either isolated compound or vancomycin (reference) diluted in DMSO, giving a final DMSO concentration in each well of 2.7%, and final concentrations of active compound between 0 and 540 μg/ml (23 different concentrations). Four parallels were assayed for each compound and concentration. 0.5 mg of the compound produced by strain M1152ΔmatAB (P08-G05_C16) was purified on preparative HPLC, and the pure compound was tested in bioassay against a panel of strains. The indicator organisms were M. luteus ATCC 9341, Staphylococcus aureus ATCC 29213, Staphylococcus aureus ATCC 43300 (MRSA), Enterococcus faecium CCUG 37832, Enterococcus faecium CTC 492.

[2] = tested on: E. faecium CTC 492; assay: as above; assay type: cell-based, Enterococcus faecium; conditions: Mueller-Hinton broth, 2.7% DMSO
Protocol: as §1

In the case of CN[C@H](CC(C)C)C(=O)N[C@H]1C(=O)N[C@@H](CC(N)=O)C(=O)N[C@H]2C(=O)N[C@H]3C(=O)N[C@H](C(=O)N[C@H](C(=O)O)c4cc(O)cc(O)c4-c4cc3ccc4O)[C@H](O)c3ccc(c(Cl)c3)Oc3cc2cc(c3O[C@@H]2O[C@H](CO)[C@@H](O)[C@H](O)[C@H]2O[C@H]2C[C@](C)(N)[C@H](O)[C@H](C)O2)Oc2ccc(cc2Cl)[C@H]1O [Vancomycin, vancomycin], the “MIC70: E. faecium CCUG 37832” value [1] was 270 µg/mL (≈ 186 µM) and the “MIC70: E. faecium CTC 492” value [2] was 1.06 µg/mL (≈ 0.731 µM).
